Like-named read-outs stand apart in the source and are kept apart here.
Key:
Type in all cases: cell-based
[1] = tested on: HIV-1 (NL4-3 strain) p24 antigen production; test: microbe, parasite or virus in culture
Experimental: (§1) For virus preparation, 293T/17 cells (Invitrogen), which are maintained in Dulbecco’s modified Eagle medium (DMEM) containing 10% FBS, in a T-75 flask were transfected with 10 μg of the pNL4-3 construct by the calcium phosphate method. The supernatant was collected 48 h after transfection, passed through a 0.45 μm filter, and stored at −80 °C as a stock virus. Inhibitory activities of test compounds against X4-HIV-1 (NL4-3 strain)-induced cytopathogenicity in MT-4 cells, which are maintained in RPMI-1640 containing 10% FBS, were assessed by the MTT assay. Various concentrations of test compound solutions were added to HIV-1-infected MT-4 cells at multiplicity of infection (MOI) of 0.001, and placed in wells of a 96-well microplate. The test compounds and the reference compounds such as AZT and AMD3100 were diluted by two-fold and five-fold, respectively. After 5 days’ incubation at 37 °C in a CO2 incubator, the number of viable cells was determined by the MTT assay. Cytotoxicities of the test compounds were determined based on reduction of the viability of MT-4 cells by the MTT assay. The p24 antigen content in the culture supernatant was measured using HIV-1 p24 antigen enzyme-linked immunosorbent assay (ELISA) kit according to manufacturer’s instructions (Zeptometrix, Buffalo, NY, USA). A reverse transcriptase inhibitor, AZT, a CXCR4 antagonist, AMD3100 (Sigma Aldrich, St. Louis, MO, USA) were employed as positive control compounds with anti-HIV activity.
These compounds were also evaluated by a different method, using an enzyme-linked immune sorbent assay (ELISA) based on their inhibitory effect against the viral p24 antigen expression in NL4-3 strain-infected MT-4 cells.

[2] = tested on: MT-4 cells; test: Cytotoxicity: reduction of the viability of MT-4 cells, MTT assay; conditions: for CC50: 50% reduction of the viability of MT-4 cells; for cytotoxicity (in words): MT-4 cells MTT assay; for concentration below which no cytotoxicity was exhibited: MT-4 cells
Experimental: as §1
(§2) The anti-HIV activity of the synthesized compounds was assessed based on protection against HIV-1 (NL4-3 strain)-induced cytopathogenicity in MT-4 cells by an MTT assay. The cytotoxicity of these compounds was determined based on reduction of the viability of MT-4 cells determined by an MTT assay.

[3] = tested on: X4-HIV-1 (NL4-3 strain); test: Anti-HIV activity: protection against HIV-1 (NL4-3 strain)-induced cytopathogenicity in MT-4 cells, MTT assay; conditions: for EC50: 50% protection from HIV-1 (NL4-3 strain)-induced cytopathogenicity in MT-4 cells, 5 days, mean or mean ± SD; for inhibition at 25 µM: Human immunodeficiency virus 1, NL43, MT4, HIV-1 (NL4-3)-induced cytopathogenicity in MT-4 cells, printed in EC50 column; for anti-HIV activity (in words): summary of MTT assay results
Experimental: as §1, §2

[4] = Cytotoxicity: reduction of the viability of MT-4 cells, MTT assay; conditions: human, MT-4 cells, 50% reduction of the viability of MT-4 cells
Experimental: as §1, §2

[5] = Human immunodeficiency virus 1, NL43, MT4, read-out: p24 ELISA EC50, 50% inhibition of viral p24 antigen production in NL4-3 strain-infected MT-4 cells
[6] = Human immunodeficiency virus 1, NL43, MT4, 120 h

Compound | CC50 at 5 days [4] | inhibition at 25 µM [3] | anti-HIV activity (in words) [3] | EC50 [3, 6] | further results
Cc1cn([C@H]2C[C@H](N=[N+]=[N-])[C@@H](CO)O2)c(=O)[nH]c1=O [AZT, reference compound] |  |  |  |  | EC50 ([1]; 50% inhibition of viral p24 antigen production in NL4-3 strain-infected MT-4 cells, read-out: p24 ELISA EC50): 0.047 µM; CC50 [2]: 79 ± 42 µM; EC50 [3]: 0.024 ± 0.015 µM
CSCC[C@H](C)OC(=O)[C@@H](N)c1ccccc1-c1csc2ccccc12 [Compound 28] | 45 µM | 31% | weak anti-HIV activity |  | cytotoxicity (in words) [2]: relatively weak cytotoxicity
CSCC[C@H](C)OC(=O)[C@@H](N)c1ccccc1-c1c[nH]c2ccccc12 [MKN-1 (1)] |  |  | high anti-HIV activity |  | EC50 ([1]; read-out: p24 ELISA EC50, 50% inhibition of viral p24 antigen production in NL4-3 strain-infected MT-4 cells): 8.5 µM; CC50 [2]: 26 ± 8.8 µM; EC50 [3]: 4.5 ± 2.3 µM
C[C@@H](CCS(C)(=O)=O)OC(=O)[C@@H](N)c1ccccc1-c1c[nH]c2ccccc12 [Compound 38] | > 50 µM | 34% | weak anti-HIV activity |  | concentration below which no cytotoxicity was exhibited [2]: ≥ 50 µM
c1cc(CN2CCCNCCNCCCNCC2)ccc1CN1CCCNCCNCCCNCC1 [AMD3100, reference compound] | > 50 µM |  |  | 0.027 ± 0.0077 µM | EC50 [1, 5]: 0.029 µM
CSCC[C@H](C)OC(=O)[C@@H](N)c1ccccc1-c1cccc2ccccc12 [Compound 22] | 33 ± 1.5 µM | 31 ± 8.5% | weak anti-HIV activity |  | cytotoxicity (in words) [2]: relatively weak cytotoxicity
C[C@@H](CCSC(C)(C)C)OC(=O)[C@@H](N)c1ccccc1-c1c[nH]c2ccccc12 [Compound 34] | 17 µM |  |  | 12 µM | 
CSCC[C@H](C)OC(=O)[C@@H](N)c1ccccc1-c1coc2ccccc12 [Compound 27] | 34 µM | 11% | weak anti-HIV activity |  | cytotoxicity (in words) [2]: relatively weak cytotoxicity
CSCC[C@H](C)OC(=O)[C@@H](N)c1ccccc1-c1ccc2ccccc2c1 [Compound 24] | 30 ± 2 µM | 40 ± 4.6% | weak anti-HIV activity |  | cytotoxicity (in words) [2]: relatively weak cytotoxicity
COCC[C@H](C)OC(=O)[C@@H](N)c1ccccc1-c1c[nH]c2ccccc12 [Compound 30] | > 50 µM |  | weak anti-HIV activity | 26 ± 2.9 µM | concentration below which no cytotoxicity was exhibited [2]: ≥ 50 µM
CSCC[C@H](C)OC(=O)[C@@H](N)c1ccccc1-c1c[nH]c2ccccc12 [MKN-1A (1A)] | 38 µM |  | significant anti-HIV activity | 8 µM | EC50 [1, 5]: 14 µM
CC(C)SCC[C@H](C)OC(=O)[C@@H](N)c1ccccc1-c1c[nH]c2ccccc12 [Compound 35] | 18 µM |  |  | 10 µM | 
C[C@@H](CCSc1ccccc1)OC(=O)[C@@H](N)c1ccccc1-c1c[nH]c2ccccc12 [Compound 36] | 17 µM |  |  | 11 µM | 
CSCC[C@@H](C)OC(=O)[C@@H](N)c1ccccc1-c1c[nH]c2ccccc12 [MKN-1B (1B)] | 37 µM |  | moderate anti-HIV activity | 24 µM | EC50 [1, 5]: 22 µM
